# Experiment: Time to dissolve in 0.5 M aqueous sodium hydroxide solution at 20° C.
# Assay type: physicochemical
# Description: The novel acetoacetarylamides dissolve in a 0.5 N sodium hydroxide solution at 20° C. in from approximately half to one third of the time required by a dried acetoacetarylide prepared according to the prior art.
# Water was introduced into a 1.5 l bench stirrer and adjusted to a temperature of 20° C. The stirrer was then rendered inert using nitrogen. Using two pumps, 133 g of aniline and 124 g of diketene were metered in over the course of 10 minutes. The addition of aniline was delayed by about 30 sec. At the end of the metered addition, the reaction temperature increased to 65° to 70° C. The mixture was then allowed to react for a further 30 minutes, and the reaction temperature dropped to 60° C. Vacuum cooling (450 to 120 mbar) was used to cool the mixture to 40° C., and the liquid acetoacetanilide began to crystallize, as a result of which the temperature immediately rose to about 58° C. The mixture was then cooled to 15° C. At 15° C., the solid product was centrifuged off, washed with 50 ml of water and dried at 50° C. under reduced pressure for 12 h. This method gave acetoacetanilide having a content of >99.5 percent (with a residual moisture content of <0.1 percent). The yield in terms of aniline was 97.1 percent, and in terms of diketene was 92.0 percent. A crystalline product having an average particle size of 450 to 500 μm was obtained. 50 g of the resulting acetoacetanilide (dry, 99.5 percent, water content <0.1 percent) dissolved completely at 20° C. in 500 ml of a 0.5 M aqueous sodium hydroxide solution in 25 minutes.
# This gave white flakes having an average thickness of 0.08 mm and an average diameter of from 0.5 mm to […]. 55.6 g of the resulting acetoacetanilide (moist, content of acetoacetanilide 89.5 percent, water content 10 percent) dissolved completely at 20° C. in 500 ml of a 0.5 M aqueous sodium hydroxide solution in about 15 minutes.
# [1] = 60 g moist pastilles in 500 ml of 0.5 M aqueous sodium hydroxide solution
# [2] = 55.6 g (moist, content 89.5 percent, water content 10 percent) in 500 ml of 0.5 M aqueous sodium hydroxide solution
# [3] = 60 g moist pastilles in 700 ml of 0.5 M aqueous sodium hydroxide solution
structure (smiles),measurement,setting,value
"CC(=O)CC(=O)Nc1ccccc1 [Example 1, Acetoacetanilide, reference compound]",time to dissolve completely,"50 g (dry, 99.5 percent, water content <0.1 percent) in 500 ml of 0.5 M aqueous sodium hydroxide solution",25 min
"CC(=O)CC(=O)Nc1ccccc1Cl [Example 10, o-Acetoacetochloroanilide]",time to dissolve,[1],about 18 minutes
"CC(=O)CC(=O)Nc1ccccc1 [Example 5, Acetoacetanilide]",time to dissolve completely,[2],about 17 minutes
"CC(=O)CC(=O)Nc1ccc(C)cc1C [Example 9, m-acetoacetoxylidide]",time to dissolve,[3],about 18 minutes
"CC(=O)CC(=O)Nc1ccccc1 [Example 4, Acetoacetanilide]",time to dissolve completely,[2],about 15 minutes
"CC(=O)CC(=O)Nc1ccccc1 [Example 6, Acetoacetanilide]",time to dissolve completely,[2],about 17 minutes
"COc1ccccc1NC(=O)CC(C)=O [Example 7, o-acetoacetanisidide]",time to dissolve,[1],about 20 minutes
"CC(=O)CC(=O)Nc1ccccc1C [Example 8, o-acetoacetotoluidide]",time to dissolve,[3],about 19 minutes
